Reference: patent publication US20170150719A1, “FUNGICIDAL PYRAZOLES AND THEIR MIXTURES” (E I DU PONT DE NEMOURS AND COMPANY, priority 2010, published 2017)

Key:
Septoria nodorum = assay: Test E: Septoria glume blotch, preventive spray on wheat seedlings, visual disease rating; conditions: Septoria glume blotch; 100 = 100% disease control, 0 = no disease control relative to the controls
[1] = tested on: Puccinia recondita f. sp. tritici; assay: Test H: wheat leaf rust, preventive spray on wheat seedlings, visual disease rating; conditions: wheat leaf rust, sprayed the day before inoculation; 100 = 100% disease control, 0 = no disease control
[2] = tested on: Blumeria graminis f. sp. tritici; assay: Test I: wheat powdery mildew, preventive spray on wheat seedlings, visual disease rating; conditions: wheat powdery mildew; 100 = 100% disease control, 0 = no disease control relative to the controls
Botrytis cinerea = assay: Test A: tomato Botrytis, preventive spray on tomato seedlings, visual disease rating; conditions: tomato Botrytis; 100 = 100% disease control, 0 = no disease control relative to the controls
Alternaria solani = assay: Test B: tomato early blight, preventive spray on tomato seedlings, visual disease rating; conditions: tomato early blight; 100 = 100% disease control, 0 = no disease control relative to the controls
[3] = tested on: Puccinia recondita f. sp. tritici; assay: Test G: wheat leaf rust, spray after inoculation (curative) on wheat seedlings, visual disease rating; assay type: in vivo; conditions: sprayed after inoculation, 100 = 100% disease control, 0 = no disease control
Source text: (§1) A hyphen (-) indicates no test results.

Septoria tritici = assay: Test F: wheat leaf blotch, preventive spray on wheat seedlings, visual disease rating; assay type: in vivo; conditions: 100 = 100% disease control, 0 = no disease control relative to the controls
Source text: as §1

Row | SMILES | Test E rating (disease control) (Septoria nodorum) [%] | Test H rating (disease control) [1] [%] | Test I rating (disease control) [2] [%] | Test A rating (disease control) (Botrytis cinerea) [%] | Test B rating (disease control) (Alternaria solani) [%] | Test G rating (disease control) [3] [%] | Test F rating (disease control) (Septoria tritici) [%]
1 | COc1cc(F)c(-c2c(C)nn(C)c2Oc2c(F)cc(Br)cc2F)c(F)c1 [compound 24] | 84 | 98 | 100 | 99 | 95 | 0 | 100
2 | Cc1nn(C)c(Nc2c(F)cc(C#N)cc2F)c1-c1c(F)cc(F)cc1F [compound 26] | 99 | 99 | 100 | 100 | 100 | 41 | 100
3 | Cc1nn(C)c(Oc2ccc(C#N)cc2F)c1-c1c(F)cc(F)cc1F [compound 27] | 99 | 99 | 100 | 99 | 99 | 9 | 100
4 | Cc1nn(C)c(Oc2ccc(C#N)cc2Cl)c1-c1c(F)cc(F)cc1F [compound 28] | 69 | 99 | 99 | 100 | 17 | 26 | 100
5 | COc1ccc(-c2c(C)nn(C)c2Nc2c(F)cc(F)cc2F)c(Cl)c1 [compound 29] | 97 | 99 | 100 | 100 | 99 | 99 | 99
6 | Cc1nn(C)c(Nc2ccc(F)cc2F)c1-c1c(F)cc(C#N)cc1F [compound 30] | 90 | 99 | 100 | 100 | 99 | 82 | 100
7 | Cc1nn(C)c(Nc2ccc(F)cc2Cl)c1-c1c(F)cc(C#N)cc1F [compound 31] | 99 | 100 | 100 | 100 | 98 | 53 | 99
8 | COc1cc(F)c(-c2c(C)nn(C)c2Nc2ccc(C#N)cc2Cl)c(F)c1 [compound 32] | 82 | 98 | 97 | 99 | 97 | 11 | 100
9 | Cc1nn(C)c(Nc2c(F)cc(F)cc2F)c1-c1c(F)cc(C#N)cc1F [compound 35] | 60 | 100 | 94 | 100 | 100 | 0 | 99
10 | COc1cc(F)c(Nc2c(-c3c(F)cc(C#N)cc3F)c(C)nn2C)c(F)c1 [compound 36] | 0 | 41 | 0 | 99 | 0 | 0 | 99
11 | COc1cc(F)c(-c2c(C)nn(C)c2Oc2c(F)cc(C#N)cc2F)c(F)c1 [compound 38] | 87 | 96 | 97 | 99 | 94 | 0 | 99
12 | CCOc1cc(F)c(-c2c(C)nn(C)c2Nc2ccc(F)cc2F)c(F)c1 [compound 39] | 98 | 99 | 100 | 99 | 99 | 0 | 100
13 | COc1ccc(-c2c(C)nn(C)c2Oc2c(F)cc(C#N)cc2F)c(Cl)c1 [compound 41] | 100 | 100 | 99 | 100 | 99 | 92 | 100
14 | COc1ccc(-c2c(C)nn(C)c2Nc2ccc(F)cc2F)c(Cl)c1 [compound 42] | 0 | 100 | 100 | 98 | 99 | 8 | 99
15 | COc1ccc(-c2c(C)nn(C)c2Nc2c(F)cccc2F)c(Cl)c1 [compound 43] | 0 | 100 | 98 | 98 | 100 | 95 | 100
16 | Cc1nn(C)c(Nc2ccc(C#N)cc2Cl)c1-c1ccc(F)cc1Cl [compound 44] | 0 | 98 | 94 | 99 | 0 | 8 | 99
17 | Cc1nn(C)c(Nc2ccc(F)cc2F)c1-c1c(F)cccc1F [compound 49] | 80 | 83 | 100 | 100 | 100 | 0 | 98
18 | Cc1nn(C)c(Nc2ccc(Cl)cc2Cl)c1-c1c(F)cccc1F [compound 50] | 73 | 93 | 100 | 100 | 99 | 0 | 95
19 | COc1ccc(Nc2c(-c3c(F)cccc3F)c(C)nn2C)c(F)c1 [compound 51] | 0 | 68 | 100 | 100 | 99 | 0 | 98
20 | Cc1nn(C)c(Nc2ccc(F)cc2F)c1-c1ccccc1F [compound 52] | 0 | 60 | 98 | 94 | 44 | 0 | 100
21 | Cc1nn(C)c(Nc2c(F)cc(F)cc2F)c1-c1ccccc1F [compound 53] | 87 | 95 | 99 | 97 | 99 | 0 | 100
22 | COc1cc(F)c(Nc2c(-c3ccccc3F)c(C)nn2C)c(F)c1 [compound 54] | 67 | 94 | 99 | 97 | 100 | 27 | 99
23 | COc1cc(F)c(Nc2c(-c3c(F)cccc3Cl)c(C)nn2C)c(F)c1 [compound 55] | 80 | 100 | 99 | 99 | 99 | 94 | 100
24 | Cc1nn(C)c(Nc2c(F)cc(F)cc2F)c1-c1c(F)cccc1Cl [compound 56] | 0 | 97 | 99 | 98 | 100 | 0 | 100
25 | Cc1nn(C)c(Nc2c(F)cc(C#N)cc2F)c1-c1c(F)cccc1Cl [compound 57] | 73 | 99 | 99 | 97 | 100 | 0 | 100
